Measured values as given in US6413530B1, “Pesticidal peptides” (priority 1999, dated 2002).
Read-outs that look alike come from different tables or passages of the source. Where a SMILES comes first, the peptide text is derived from it. Where no end group is shown, it is not given here. [ ]: non-standard residue; d: D form.

Key:
[1] = tested on: fourth instar H. virescens; test: Feeding TMOF analogues to fourth instar H. virescens: larval weight; type: in vivo, Heliothis virescens; conditions: for Weight Gain / Weight mg ± S.E.M. End: fourth instar larvae; for Weight Gain: 0.8 μg analog for 5 days; for Weight mg ± S.E.M. End: synthetic food and 0.8 μg analog for 5 days; for reduction in larval weight: fourth instar larvae fed analogue peptides for 5 days
Method: (§1) Individual first instar and fourth instar larvae of H. virescens were maintained in separate plastic cups and were fed on artificial diet blocks on which different concentrations of TMOF (0 to 1.6 mg) were adsorbed. Larvae were fed for 5 to 14 days and larval weight and trypsin activity were measured at the end of the experimental periods. […] When first instar larvae were fed for 14 days, an 18% and 26% reduction in weight was observed when analogues 15 and 14 were used (Table 4).

[2] = tested on: trypsin biosynthesis; test: Trypsin biosynthesis in guts of fourth instar H. virescens fed TMOF analogues ([3H]DFP); type: in vivo, Heliothis virescens; conditions: for Trypsin μg ± S.E.M.: guts removed after 5 days feeding 0.8 μg analog, incubated with [3H]DFP; for Inhibition (% ± S.E.M.) of trypsin: versus control, after 5 days feeding 0.8 μg analog; for reduction in trypsin biosynthesis: fourth instar larvae fed analogue peptides for 5 days
Method: as §1

[3] = tested on: First instar larvae of H. virescens; test: Feeding of first instar H. virescens on TMOF analogs for 14 days; type: in vivo, Heliothis virescens; conditions: for Number of Dead Larvae / Weight (mg) ± S.E.M. / Weight Reduction (%) ± S.E.M.: first instar larvae, 1.6 μg analog, 14 days; for Weight Reduction (%) ± S.E.M.: versus control; for reduction in weight: first instar larvae fed for 14 days
Method: as §1

[4] = tested on: mosquito larvae; type: in vivo; conditions: newly hatched larvae on autoclaved yeast 1 mg/ml plus peptide, microtiter plates, 7 days
Method: Preferably, the subject peptides have an LD50 against mosquito larvae of less than 3.0 μmole/ml. More preferably, the peptides have an LD50 of less than […], and, most preferably, the peptides have an LD50 of less than 1.0 μmole/ml. As used herein, “LD50” refers to a lethal dose of a peptide able to cause 50% mortality of larvae maintained on a diet of 1 mg/ml autoclaved yeast supplemented with the pesticidal polypeptide. (Borovsky, Dov, and Farida Mahmood [1995] Regulatory Peptides 57:273-281).
TMOF can traverse the gut epithelium, enter the hemolymph and bind a gut receptor (Borovsky, D. and F. Mahmood (1995) “Feeding the mosquito Aedes aegypti with TMOF and its analogs; effect on trypsin biosynthesis and egg development,” Regulatory Peptides 57:273-281.; Borovsky et al. (1994) “Characterization and localization of mosquito-gut receptors for trypsin modulating oostatic factor using complementary peptide immunochemistry” FASEB J. 8:350-355.). This characteristic permits the testing of TMOF and its analogues by feeding them to mosquito and other pest larvae. To find out if truncated TMOF peptides have an effect on larval growth and development, a series of peptides were synthesized and tested by feeding them to mosquito larvae at concentrations of 0 to 5.0 mg/ml (Table 2). Individual, newly hatched Aedes aegypti larvae were maintained in separate microtiter plate wells on a diet of autoclaved yeast (1 mg/ml). The diet was supplemented with TMOF peptides (Table 2). An identical number of larvae maintained on yeast served as a control. […] All control groups survived and larval growth and development was normal. Since larvae swallow only a small portion of the yeast particles adsorbed the peptides, it is assumed that approximately 1 to 20 ng are taken orally at the high concentrations.

C[C@H](NC(=O)[C@@H]1CCCN1C(=O)[C@@H](CC(=O)O)NC(=O)[C@@H](N)Cc1ccc(O)cc1)C(=O)N1CCC[C@H]1C(=O)O [Compound 17, Y(D)DPAP] (H-Y[dD]PAP-OH; N-terminus and C-terminus assumed)
Weight Gain [1]: 153 mg | Weight mg ± S.E.M. End [1]: 188 ± 12 mg | Trypsin μg ± S.E.M. [2]: 2.1 ± 0.2 µg | Inhibition (% ± S.E.M.) of trypsin [2]: 15 ± 1.3% | Number of Dead Larvae [3]: 1 | Weight (mg) ± S.E.M. [3]: 152 ± 27 mg | Weight Reduction (%) ± S.E.M. [3]: 7 ± 1%

N[C@@H](Cc1ccc(O)cc1)C(=O)N[C@H](CC(=O)O)C(=O)N1CCC[C@H]1C(=O)O [Compound 22, Y(D)DP] (H-Tyr-[dD]-Pro-OH; N-terminus and C-terminus assumed)
LD50 ± S.E.M. ([4]; left half of Table 2): 0.28 ± 0.01 mM

(D)YDP [Compound 24]
LD50 ± S.E.M. ([4]; right half of Table 2): 0.51 ± 0.05 Mm

AAP [Compound 29]
LD50 ± S.E.M. ([4]; right half of Table 2): 1.08 ± 0.07 Mm

ADP [Compound 40]
LD50 ± S.E.M. ([4]; right half of Table 2): >6.6 Mm

ADPAP [Compound 21, ADPAP]
LD50 ± S.E.M. ([4]; left half of Table 2): 2.0 ± 0.36 mM | Weight Gain [1]: 174.1 mg | Weight mg ± S.E.M. End [1]: 209.7 ± 12 mg | Trypsin μg ± S.E.M. [2]: 2.4 ± 0.3 µg | Inhibition (% ± S.E.M.) of trypsin [2]: 5 ± 0.6% | Number of Dead Larvae [3]: 0 | Weight (mg) ± S.E.M. [3]: 141 ± 9 mg | Weight Reduction (%) ± S.E.M. [3]: 7 ± 0.4%

APA [Compound 28]
LD50 ± S.E.M. ([4]; right half of Table 2): 1.0 ± 0.07 Mm

DAA [Compound 25]
LD50 ± S.E.M. ([4]; right half of Table 2): 0.91 ± 0.06 Mm

DPA [Compound 23]
LD50 ± S.E.M. ([4]; right half of Table 2): 0.4 ± 0.03 Mm

DYP [Compound 31]
LD50 ± S.E.M. ([4]; right half of Table 2): 1.27 ± 0.17 Mm | Weight Gain [1]: 180.5 mg | Weight mg ± S.E.M. End [1]: 216.7 ± 13 mg | Trypsin μg ± S.E.M. [2]: 2.2 ± 0.3 µg | Inhibition (% ± S.E.M.) of trypsin [2]: 14 ± 1.8% | Number of Dead Larvae [3]: 1 | Weight (mg) ± S.E.M. [3]: 149 ± 9 mg | Weight Reduction (%) ± S.E.M. [3]: 9 ± 0.5%

FAP [Compound 39]
LD50 ± S.E.M. ([4]; right half of Table 2): 3.8 ± 0.23 Mm

FDP [Compound 33]
LD50 ± S.E.M. ([4]; right half of Table 2): 1.98 ± 0.6 Mm

FDPAP [Compound 5, FDPAP]
LD50 ± S.E.M. ([4]; left half of Table 2): 0.37 ± 0.15 mM

FSP [Compound 35]
LD50 ± S.E.M. ([4]; right half of Table 2): 2.3 ± 0.13 Mm

MPDYPPPPP [Compound 2, MPDYP5]
LD50 ± S.E.M. ([4]; left half of Table 2): >3.0 mM

PAA [Compound 37]
LD50 ± S.E.M. ([4]; right half of Table 2): 2.4 ± 0.34 Mm

PAP [Compound 38]
LD50 ± S.E.M. ([4]; right half of Table 2): 3.17 ± 0.14 Mm

YAP [Compound 36]
LD50 ± S.E.M. ([4]; right half of Table 2): 2.3 ± 0.5 Mm

YAPAP [Compound 8, YAPAP]
LD50 ± S.E.M. ([4]; left half of Table 2): 0.54 ± 0.13 mM

YDA [Compound 32]
LD50 ± S.E.M. ([4]; right half of Table 2): 1.6 ± 0.13 Mm

YDAAP [Compound 15, YDAAP]
LD50 ± S.E.M. ([4]; left half of Table 2): 1.0 ± 0.18 mM | reduction in larval weight [1]: reduction | Weight Gain [1]: 179 mg | Weight mg ± S.E.M. End [1]: 217 ± 9.5 mg | reduction in trypsin biosynthesis [2]: reduction | Trypsin μg ± S.E.M. [2]: 2.1 ± 0.2 µg | Inhibition (% ± S.E.M.) of trypsin [2]: 17 ± 1.6% | reduction in weight [3]: 18% | Number of Dead Larvae [3]: 0 | Weight (mg) ± S.E.M. [3]: 133 ± 7 mg | Weight Reduction (%) ± S.E.M. [3]: 18 ± 1%

YDF [Compound 27]
LD50 ± S.E.M. ([4]; right half of Table 2): 0.97 ± 0.11 Mm

YDFAP [Compound 14, YDFAP]
LD50 ± S.E.M. ([4]; left half of Table 2): 0.74 ± 0.13 mM | reduction in larval weight [1]: reduction | Weight Gain [1]: 164 mg | Weight mg ± S.E.M. End [1]: 201 ± 12 mg | reduction in trypsin biosynthesis [2]: reduction | Trypsin μg ± S.E.M. [2]: 2.1 ± 0.2 µg | Inhibition (% ± S.E.M.) of trypsin [2]: 19 ± 1.5% | reduction in weight [3]: 26% | Number of Dead Larvae [3]: 1 | Weight (mg) ± S.E.M. [3]: 121 ± 7 mg | Weight Reduction (%) ± S.E.M. [3]: 26 ± 1.5%

YDG [Compound 26]
LD50 ± S.E.M. ([4]; right half of Table 2): 0.95 ± 0.11 Mm

YDLAP [Compound 13, YDLAP]
LD50 ± S.E.M. ([4]; left half of Table 2): 0.6 ± 0.05 mM

YDP [Compound 34]
LD50 ± S.E.M. ([4]; right half of Table 2): 2.3 ± 0.4 Mm | Weight Gain [1]: 186.3 mg | Weight mg ± S.E.M. End [1]: 223.4 ± 16 mg | Trypsin μg ± S.E.M. [2]: 2.1 ± 0.3 µg | Inhibition (% ± S.E.M.) of trypsin [2]: 19 ± 3.2% | Number of Dead Larvae [3]: 0 | Weight (mg) ± S.E.M. [3]: 157 ± 10 mg | Weight Reduction (%) ± S.E.M. [3]: 4 ± 0.2%

YDPAA [Compound 19, YDPAA]
LD50 ± S.E.M. ([4]; left half of Table 2): 1.6 ± 0.13 mM

YDPAF [Compound 3, YDPAF]
LD50 ± S.E.M. ([4]; left half of Table 2): 0.33 ± 0.2 mM

YDPAL [Compound 7, YDPAL]
LD50 ± S.E.M. ([4]; left half of Table 2): 0.52 ± 0.03 mM

YDPAP [Compound 12, YDPAP, reference compound]
LD50 ± S.E.M. ([4]; left half of Table 2): 1.64 ± 0.03 mM

YDPAPPPPPP [Compound 1, YDPAP6, reference compound]
LD50 ± S.E.M. ([4]; left half of Table 2): 0.2 ± 0.02 mM

YDPFP [Compound 20, YDPFP]
LD50 ± S.E.M. ([4]; left half of Table 2): 1.7 ± 0.4 mM

YDPGP [Compound 16, YDPGP]
LD50 ± S.E.M. ([4]; left half of Table 2): 1.1 ± 0.18 mM | Weight Gain [1]: 163.1 mg | Weight mg ± S.E.M. End [1]: 199.8 ± 11 mg | Trypsin μg ± S.E.M. [2]: 2.1 ± 0.1 µg | Inhibition (% ± S.E.M.) of trypsin [2]: 17 ± 1% | Number of Dead Larvae [3]: 2 | Weight (mg) ± S.E.M. [3]: 153 ± 10 mg | Weight Reduction (%) ± S.E.M. [3]: 6 ± 0.4%

YDPLP [Compound 6, YDPLP]
LD50 ± S.E.M. ([4]; left half of Table 2): 1.5 ± 0.04 mM

YEPAP [Compound 4, YEPAP]
LD50 ± S.E.M. ([4]; left half of Table 2): 0.35 ± 0.02 mM

YFPAP [Compound 11, YFPAP]
LD50 ± S.E.M. ([4]; left half of Table 2): 0.64 ± 0.03 mM

YNPAP [Compound 9, YNPAP]
LD50 ± S.E.M. ([4]; left half of Table 2): 0.55 ± 0.03 mM

YSF [Compound 30]
LD50 ± S.E.M. ([4]; right half of Table 2): 1.08 ± 0.12 Mm

YSPAP [Compound 18, YSPAP]
LD50 ± S.E.M. ([4]; left half of Table 2): 1.4 ± 0.03 mM | reduction in larval weight [1]: reduction | Weight Gain [1]: 151 mg | Weight mg ± S.E.M. End [1]: 188 ± 10.6 mg | reduction in trypsin biosynthesis [2]: reduction | Trypsin μg ± S.E.M. [2]: 2.0 ± 0.2 µg | Inhibition (% ± S.E.M.) of trypsin [2]: 19 ± 2% | Number of Dead Larvae [3]: 0 | Weight (mg) ± S.E.M. [3]: 168 ± 11 mg | Weight Reduction (%) ± S.E.M. [3]: 0%
